Read-outs that look alike come from different tables or passages of the source. Where a SMILES comes first, the peptide text is derived from it. [ ]: non-standard residue; d: D form. The star is where a group is joined. Palmitoyl = CCCCCCCCCCCCCCCC(=O)*
Tests used:
[1] = system: prostate cancer cell line DU-145; test: Cell death assay (Cell Counting Kit-8) on prostate cancer cells; type: cell-based
Experimental: GnRH derivatives are clinically applied to the treatment of diseases including breast cancer, prostate cancer, endometriosis, central precocious puberty, and the like. The DU-145 cell line, which is a type of prostate cancer cells, was cultured in T75 flasks containing an adequate amount of RPIM 1640 culture medium (containing 10% FBS, penicillin/streptomycin, and 1% non-essential amino acids) in a sterile incubator having 5% CO2/95% air at 37° C. Cell death assay was performed using the Cell Counting Kit-8 (CCK-8, manufactured by DOJINDO). The […] cells were separated from the T75 flasks by trypsinization treatment and transferred to 96-well plates at a density of 1×10^4 cells/well, followed by incubation for one hour for attachment. Subsequently, the cells were treated with various concentrations of GnRH or GnRH derivatives, and control reagents. Specifically, 1% DMSO was used as a negative control for cell death while 0.1% SDS served as a positive control. After 48 hours of incubation, the existing culture medium was removed, and 100 μL of fresh culture medium and 10 μL of CCK-8 solution were applied to each well. Again, after 48 hours of incubation, the medium solution was replaced by 100 μL of fresh culture medium and 10 μL of CCK-8 solution. The cells were incubated for 4 hours, and then the absorbance was measured at 450 nm to assess cell viability.

[2] = Blood concentration and pharmacokinetics after single subcutaneous administration to rats (LC/MSMS); type: in vivo, female SD rats; conditions: rat
Experimental: Before administration and at 0.5, 1, 2, and 6 hours and on days 1, 3, 7, 10, 14, 21, and 28 after administration, blood samples were taken from the tail vein of the rats and measured for the blood concentrations of Leuprolide and GnRH derivatives, using LC/MSMS. If the concentration reached about 4 ng/mL at a specific time point, no measurements were further made for the next time point. The measurement results are graphically depicted in FIGS. 4 to 6. Based on the results, pharmacokinetic analysis was carried out by calculating the half-life (t1/2), clearance rate (CL), volume of distribution (Vd), time to reach the maximum concentration following drug administration (Tmax), maximum concentration following drug administration (Cmax), and systemic exposure to drug (AUCt). The analysis results are as follows.

[3] = cited from earlier work
[4] = emulsion; same dose (Peng et al., 2010); cited from earlier work
[5] = female, SD, in vivo, sc, 12.5 mg/kg
[6] = female, SD, in vivo, sc, 12.5 mg/kg, blood concentration, Mean

Which “Viability relative to control (%)” value ([1]; DU-145 cells, positive control at 0.1%) does the source give for `CCCCCCCCCCCCOS(=O)(=O)[O-].[Na+]` [0.1% SDS, reference compound] here?
The value was 21.7%.

Which “fold greater cytotoxic effects compared to Leuprolide or GnRH” value [1] does the source give for `CCCCCCCCCCCCCCCC(=O)N[C@@H](CCC(N)=O)C(=O)N[C@@H](Cc1c[nH]cn1)C(=O)N[C@@H](Cc1c[nH]c2ccccc12)C(=O)N[C@@H](CO)C(=O)N[C@@H](Cc1ccc(O)cc1)C(=O)N[C@H](CC(C)C)C(=O)N[C@@H](CC(C)C)C(=O)N[C@@H](CCCNC(=N)N)C(=O)N1CCC[C@H]1C(=O)NCC` [Derivative P2, Palmitate-Gln-His-Trp-Ser-Tyr-DLeu-Leu-Arg-Pro-NHEt] (Palmitoyl-QHWSY[dL]LRP-NHEt) here?
The value was 7- to 7.5 fold.

And the level at 0.5 h ([2]; female, SD, blood, sc, 12.5 mg/kg, s.c. once 12.5 mg/kg, 0.5 hr., read-out: blood concentration, Mean)?
Its level at 0.5 h is 11.8 ng/mL.

And the level at 1 h ([2]; female, SD, blood, sc, 12.5 mg/kg, s.c. once 12.5 mg/kg, 1 hr., read-out: blood concentration, Mean)?
The level at 1 h was 16.9 ng/mL.

What about the level at 2 h ([2]; female, SD, blood, sc, 12.5 mg/kg, s.c. once 12.5 mg/kg, 2 hr., read-out: blood concentration, Mean) of the same molecule?
Its level at 2 h is 29.1 ng/mL.

And the level at 6 h ([2]; female, SD, blood, sc, 12.5 mg/kg, s.c. once 12.5 mg/kg, 6 hr., read-out: blood concentration, Mean)?
The level at 6 h was 52.2 ng/mL.

And the level at 24 h ([2]; female, SD, blood, sc, 12.5 mg/kg, s.c. once 12.5 mg/kg, 1 day)?
The level at 24 h was 45 ng/mL.

What about the level at 168 h ([2]; female, SD, blood, sc, 12.5 mg/kg, s.c. once 12.5 mg/kg, 7 days) of the same molecule?
Its level at 168 h is 11.9 ng/mL.

And the level at 240 h ([2]; female, SD, blood, sc, 12.5 mg/kg, s.c. once 12.5 mg/kg, 10 days)?
Its level at 240 h is 8.18 ng/mL.

What about the level at 336 h ([2]; female, SD, blood, sc, 12.5 mg/kg, s.c. once 12.5 mg/kg, 14 days) of the same molecule?
Its level at 336 h is 4.35 ng/mL.

And the “CL (clearance rate)” value ([2]; s.c. once 12.5 mg/kg)?
Its value is 0.051 (mg/kg)/(ng/ml)/day.

And the “Vd (volume of distribution)” value ([2]; s.c. once 12.5 mg/kg)?
The value was 0.351 (mg/kg)/(ng/ml).

For `CCCCCCCCCCCCCCCC(=O)N[C@@H](CCC(=O)O)C(=O)N[C@@H](Cc1c[nH]cn1)C(=O)N[C@@H](Cc1c[nH]c2ccccc12)C(=O)N[C@@H](CO)C(=O)N[C@@H](Cc1ccc(O)cc1)C(=O)N[C@H](CC(C)C)C(=O)N[C@@H](CC(C)C)C(=O)N[C@@H](CCCNC(=N)N)C(=O)N1CCC[C@H]1C(=O)NCC` [Derivative P3, Palmitate-Glu-His-Trp-Ser-Tyr-DLeu-Leu-Arg-Pro-NHEt] (Palmitoyl-EHWSY[dL]LRP-NHEt), which “fold greater cytotoxic effects compared to Leuprolide or GnRH” value [1] is on record?
The value was 7- to 7.5 fold.

With `CCCCCCCCCCCCCCCC(=O)N[C@@H](CCC(N)=O)C(=O)N[C@@H](Cc1c[nH]cn1)C(=O)N[C@@H](Cc1c[nH]c2ccccc12)C(=O)N[C@@H](CO)C(=O)N[C@@H](Cc1ccc(O)cc1)C(=O)N[C@H](CC(C)C)C(=O)N[C@@H](CC(C)C)C(=O)N[C@@H](CCCNC(=N)N)C(=O)N1CCC[C@H]1C(=O)NCC` [Derivative P4, Palmitate-Gln-His-Trp-Ser-Tyr-DLeu-Leu-Arg-Pro-NHEt] (Palmitoyl-QHWSY[dL]LRP-NHEt) as the molecule, how does the level at 504 h ([2]; female, SD, blood, sc, 12.5 mg/kg, s.c. once 12.5 mg/kg, 21 days) read?
Its level at 504 h is 1.26 ng/mL.

What about the “CL (clearance rate)” value ([2]; s.c. once 12.5 mg/kg) of the same molecule?
The value was 0.075 (mg/kg)/(ng/ml)/day.

What about the “Vd (volume of distribution)” value ([2]; s.c. once 12.5 mg/kg) of the same molecule?
Its value is 0.436 (mg/kg)/(ng/ml).

For `CC(C)C[C@H](NC(=O)CNC(=O)[C@H](Cc1ccc(O)cc1)NC(=O)[C@H](CO)NC(=O)[C@H](Cc1c[nH]c2ccccc12)NC(=O)[C@H](Cc1cnc[nH]1)NC(=O)[C@@H]1CCC(=O)N1)C(=O)N[C@@H](CCCNC(=N)N)C(=O)N1CCC[C@H]1C(=O)NCC(N)=O` [GnRH], which “in vivo half-life in circulating blood” value [3] is on record?
Its value is 2 to 4 min.

For `CCNC(=O)[C@@H]1CCCN1C(=O)[C@H](CCCNC(=N)N)NC(=O)[C@H](CC(C)C)NC(=O)[C@@H](CC(C)C)NC(=O)[C@H](Cc1ccc(O)cc1)NC(=O)[C@H](CO)NC(=O)[C@H](Cc1c[nH]c2ccccc12)NC(=O)[C@H](Cc1c[nH]cn1)NC(=O)[C@@H]1CCC(=O)N1` [Leuprolide, pyroGlu-His-Trp-Ser-Tyr-DLeu-Leu-Arg-Pro-NHEt, reference compound], which “cell death rate on prostate cancer cells” value ([1]; DU-145 cells) is on record?
Its value is “about 10%”.

What about the AUC(0-t) [2, 5] of the same molecule?
The AUC(0-t) was 1660 ng·h/mL.

What about the Cmax [2, 5] of the same molecule?
The Cmax was 1020 ng/mL.

And the Tmax [2, 5]?
The Tmax was 28.8 min.

What about the half-life [2, 5] of the same molecule?
The half-life was 43.2 min.

What about the level at 0.5 h [2, 6] of the same molecule?
The level at 0.5 h was 1020 ng/mL.

And the level at 1 h [2, 6]?
The level at 1 h was 769 ng/mL.

What about the level at 2 h [2, 6] of the same molecule?
Its level at 2 h is 228 ng/mL.

And the level at 6 h [2, 6]?
Its level at 6 h is 2.88 ng/mL.

And the “CL (clearance rate)” value ([2]; in vivo, sc, 12.5 mg/kg)?
Its value is 0.180 (mg/kg)/(ng/ml)/day.

And the “Vd (volume of distribution)” value ([2]; in vivo, sc, 12.5 mg/kg)?
Its value is 0.007 (mg/kg)/(ng/ml).

For dexamethasone palmitate, which “anti-inflammatory effect, fold higher than dexamethasone alone” value [4] is on record?
Its value is 5.6 fold.
